The target of the assay is S. pyogenes SKKanGAS, kanamycin survival, BacTiterGlo, 6 h. As to the kind of experiment: SKKanGAS survival reduction under kanamycin, dose response, streptokinase promoter inhibitor project, SKKanGAS strain, luminescence, dose confirmation (AID 1902).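 Also: lower survival reflects blocked streptokinase promoter driving kanamycin resistance gene.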

Activity calls are given as the source filed them.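 The calls were made as follows: active = EC50 no more than a set limit of log units above the highest dose; inactive = the rest.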 Where only a bound is given, the exact number is not on record here.

A word on the EC50: it is the concentration at which the effect is half-maximal.

Consider `CC(C)Nc1nc(NC(C)C)nc(N(C)N)n1`, for which the EC50 was 3.07 µM. The same measure for `COCCNC(=O)c1c(NC(=O)c2ccc(Br)o2)n(Cc2ccccc2)c2nc3ccccc3nc12`: 2.44 µM; for `CCCSc1nsc(NC(=O)Nc2ccc(F)cc2F)n1`: 5.66 µM; for `CCCOC(=O)c1ccc(Oc2cn[nH]c2-c2ccc(OC)cc2O)cc1`: 7.36 µM. The same measure for `Cc1cc(N/N=C/c2cccc(Br)c2)nc2ccccc12`: 5.25 µM; for `CCOC(=O)c1cnn(-c2nc(-c3cccc(F)c3)cs2)c1C(F)(F)F`: 12.3 µM; for `COc1ccc(N=Nc2cc(-c3ccccc3)ccc2O)cc1`: 13.1 µM. The result for `CCCCCCCCCCCC(=O)c1c(O)cccc1O` reads 1.58 µM; that for `CCCCOC(=O)c1ccc(NC(=S)N2CCN(c3ncc4c(=O)c(C(=O)O)cn(CC)c4n3)CC2)cc1`, 2.04 µM; that for `Cc1sc2cc3c(c(C(=O)c4ccccc4)[n+]2c1C)-c1cccc2cccc-3c12`, 6.66 µM.

As for `Cc1oc(-c2cc(Cl)cc(Cl)c2)cc1C(=O)NCCc1ccccc1`, the half-maximal effective concentration (EC50) was 11.7 µM. The result for `O=C(COc1ccc([N+](=O)[O-])cc1)Nc1nc(-c2ccccn2)cs1` reads 3.68 µM; that for `COc1ccc(C(=O)c2coc3c2C(=O)C(=O)c2ccccc2-3)cc1`, 5.65 µM; that for `COC(=O)c1ccc(N2CCC(c3cc(-c4ccc(OC)cc4)n[nH]3)CC2)c([N+](=O)[O-])c1`, 2.15 µM.

`COc1cc2oc3ccc(C#Cc4ccc(N)cc4)cc3c(=O)c2cc1OC`: the concentration for a half-maximal effect (EC50) is 0.799 µM. The same measure for `CC(=O)N(C)c1ccc(OCC(O)Cn2c3ccc(Cl)cc3c3cc(Cl)ccc32)cc1` (centres undefined): 3.35 µM. The result for `COc1cccc(N/N=C/c2cccc(Br)c2O)c1` reads 15.6 µM; that for `COc1cc(OC)cc(C(=O)Nc2nc(-c3ccccc3)c(-c3ccccc3)o2)c1`, 0.629 µM. The result for `CCOC(=O)c1ccc(NC(=O)c2nc[nH]c2C(=O)N[C@@H](Cc2ccccc2)C(=O)OC(C)(C)C)cc1` reads 3.17 µM.

Take `O=C(Nc1ccccc1N1CCCC1)c1ccc2c(c1)OCO2`: the EC50 is > 15 µM (inactive). The result for `O=[N+]([O-])c1ccc(N2N=C(c3ccccc3)CC2c2ccccc2O)cc1` (centres undefined) reads 2.25 µM. The result for `Cc1ccc(N=Nc2ccc(O)c3ncccc23)cc1` reads 0.098 µM. As for `CC1(C)N=C(N)N=C(N)N1c1ccc(Oc2ccc(Cl)cc2)c(Cl)c1`, the concentration for a half-maximal effect (EC50) was less than 0.06 µM. The result for `CC(C)(C)c1ccc(CSc2cnn(C(C)(C)C)c(=O)c2Cl)cc1` reads 4.99 µM; that for `Cc1ccc(CN2C(=O)c3ccccc3NC2c2cc(Br)ccc2O)cc1` (centres undefined), 4.31 µM. The same measure for `Cc1ccc(S(=O)(=O)N2c3ccccc3OCC2C(C)(C)C)cc1` (centres undefined): 2.59 µM. The same measure for `Cc1ccc(Nc2nc(N/N=C\c3ccc4c(c3)OCO4)nc(N3CCOCC3)n2)cc1`: 4.5 µM; for `COc1cc(/C=C/C(=O)OC2CC3CCC2(C)C3(C)C)ccc1O` (centres undefined): 7.08 µM.

Take `S=c1[nH]nc(-c2cc(-c3ccccc3)n[nH]2)n1/N=C/c1ccc(Cl)cc1`: the 50% effective concentration (EC50) is 8.67 µM. The result for `Oc1ccc(/C=N/N(Cc2ccccc2)c2ccccc2)cc1` reads 6.16 µM; that for `CN1c2ccsc2/C(=N/Nc2ccccc2)CS1(=O)=O`, 2.21 µM. The result for `OC(COc1cccc2ccccc12)CN1CCN(c2ccc(Cl)cc2)CC1` (centres undefined) reads 15.4 µM; that for `Cc1cc(Cl)ccc1NC(=S)NCCC(c1ccccc1)c1ccccc1`, 11.1 µM. The result for `Cc1c(C(=O)Nc2ccc3c(c2)OCCO3)sc2nc(-c3ccccc3)cn12` reads 2.52 µM. Consider `Cc1cc(N/N=C/c2ccc(O)c(C)c2O)nc(-c2ccccc2O)n1`, for which the concentration for a half-maximal effect (EC50) was 3.09 µM. The same measure for `C/C(=N\NC(=O)COc1ccc(C)cc1C(C)C)c1cc2ccccc2o1`: 11 µM. The result for `Cc1ccc(-n2[nH]c(C)c(/C=N/NC(=O)c3cccc([N+](=O)[O-])c3)c2=O)cc1C` reads 1.15 µM. Consider `CC(C)(C)c1ccc(C(=O)N/N=C/c2ccccn2)cc1`, for which the EC50 is 3.3 µM. The result for `CCCOC(=O)c1ccc(Oc2c(-c3ccc(OC)cc3O)n[nH]c2C)cc1` reads 13.5 µM; that for `CCN(CC)c1ccc(NC(=O)c2c(C)noc2C)cc1`, > 15 µM (inactive); that for `CCOC(=O)c1cnn(-c2nc3c(C)cccc3s2)c1C(F)(F)F`, 12.5 µM.

In the case of `Clc1ccc(-c2csc(Nc3ccccc3)[n+]2Cc2ccco2)c(Cl)c1`, the EC50 is 3.35 µM. With `Cc1cccc(-n2nc(C(=O)c3ccco3)cc(-c3nc4ccccc4[nH]3)c2=N)c1`, the EC50 is 3.36 µM. As to `CC(C)Cc1nnc(NC(=O)CCC(=O)N2CCN(c3ccccc3)CC2)s1`, the EC50 was > 15 µM (inactive). The result for `COc1cc2ccccc2cc1C(=O)NC(=S)Nc1ccc(C(=O)O)cc1` reads 4.44 µM. In the case of `C/C(=N\NC(=O)c1cc(Br)ccc1O)c1ccccn1`, the EC50 is less than 0.06 µM. The result for `COc1ccc(C(=O)c2c(C(F)(F)F)oc3c2C(=O)c2ccccc2C3=O)cc1` reads 1.99 µM; that for `[O-][n+]1cccc2c(Br)cc(Br)c(O)c21`, 0.55 µM; that for `CCOc1ccc(N(C)c2ccc(/C=C3/SC(=S)NC3=O)cc2)cc1`, 4.3 µM. The same measure for `O=C(Cc1ccccc1)N/N=C/c1ccccn1`: > 15 µM (inactive); for `COc1ccc(C2C(C(=O)c3ccccc3)=C(C)Nc3nc4ccccc4n32)c(OC)c1` (centres undefined): 6.1 µM.

For the molecule `O=S(=O)(Nc1cccc(-c2ccc(N3CCOCC3)nn2)c1)c1ccc(Cl)c(Cl)c1`, the EC50 was 9.66 µM. The result for `COc1cnc(-c2ccccn2)nc1Oc1ccc(Cl)c2ccccc12` reads 0.142 µM; that for `Cc1ccc2[nH]c(O)c(N=NC(=O)c3ccc(NS(=O)(=O)c4cccs4)cc3)c2c1`, 1.25 µM; that for `CC(=O)Oc1c(I)cc(I)cc1C(=O)Nc1ccc(Cl)cc1`, 0.394 µM. The same measure for `Cc1cc(NC(=O)CN2C(=O)c3ccccc3C2=O)no1`: > 15 µM (inactive); for `CCCC(=O)NC(c1ccc(C)cc1)c1ccc2cccnc2c1O` (centres undefined): 4.16 µM. On to `Oc1c(C(c2ccc(Cl)cc2)N2CCCC2)cc(Cl)c2cccnc12` (centres undefined), for which the EC50 is 1.53 µM. Consider `CCCOc1ccc(Cc2c(Cl)nc(SC)nc2N(C)C)cc1`, for which the EC50 was 3.46 µM. The same measure for `N=C1/C(=C/c2cccs2)C(=O)N=C2SN=C(SCc3ccccc3)N12`: 1.83 µM; for `CCCCCCCCCC[N+](C)(C)CC/C=C1/c2ccccc2Sc2ccc(Cl)cc21`: 2.31 µM. For `C/C(CC(=O)Nc1ccc(Cl)c(C(F)(F)F)c1)=N\NC(=O)c1ccccc1O`, the EC50 is 3.98 µM. The result for `N=C1/C(=C\c2ccc(-c3cccc(C(=O)O)c3)o2)C(=O)N=C2SC=C(c3ccccc3)N12` reads 1.2 µM. Consider `Cc1ccc(/C=C2/Sc3ccc(C(=O)N4CCN(C)CC4)cc3NC2=O)cc1`, for which the EC50 was 13.4 µM.

For `COc1ccc(/C=C2\SC(=N)N(c3nccs3)C2=O)cc1OC`, the concentration giving a half-maximal response (EC50) was 0.838 µM. The result for `CCc1ccccc1OCC(=O)Nc1nc(-c2cccnc2)cs1` reads 1.05 µM; that for `O=C(CSc1ccc(-c2ccc(Cl)cc2)nn1)NC1CCCC1`, > 15 µM (inactive).

Consider `CCOC(=O)c1cnc(-n2cc(C)cn2)nc1Nc1ccccc1OCC`, for which the EC50 is 4.18 µM. The result for `O=[N+]([O-])c1ccc(O)c(-c2nc(-c3ccccc3)c(-c3cccs3)[nH]2)c1` reads 0.979 µM.

(Values after PubChem BioAssay AID1902 (Broad Institute, 2009).)
